Experimental data reported in ChEMBL document CHEMBL3217526, “Bioguided discovery and pharmacophore modeling of the mycotoxic indole diterpene alkaloids penitrems as breast cancer proliferation, migration, and invasion inhibitors” (Medchemcomm, 2013).
Calls of active or inactive are those of the source. No cut-off for these calls is given here.

Legend:
Caenorhabditis elegans [1] = experiment: Toxicity in L1 stage Caenorhabditis elegans N2 assessed as viability and reproduction at 10 uM; type: organism-based; conditions: in vivo
MDA-MB-231 [2] = experiment: Antimigratory activity in human MDA-MB-231 cells after 24 hrs by wound healing assay; type: functional, cell-based; conditions: MDA-MB-231, 24 h
MCF7 = experiment: Antiproliferative activity against human MCF7 cells after 72 hrs by MTT assay; type: functional, cell-based; conditions: MCF7, 72 h
MDA-MB-231 [3] = experiment: Antiproliferative activity against human MDA-MB-231 cells after 72 hrs by MTT assay; type: functional, cell-based; conditions: MDA-MB-231, 72 h
Caenorhabditis elegans [4] = experiment: In vivo inhibition of BK channel in L1 stage Caenorhabditis elegans N2 assessed as increase in reversals at 1 uM; type: organism-based
Caenorhabditis elegans [5] = experiment: Toxicity in L1 stage Caenorhabditis elegans N2 assessed as viability and reproduction at 50 uM; type: organism-based; conditions: in vivo
MDA-MB-231 [6] = experiment: Antiinvasive activity against human MDA-MB-231 cells assessed as inhibition of cell invasion at 15 uM after 24 hrs by BME Cell invasion assay kit; type: functional

| Compound | Activity (Caenorhabditis elegans [1]) | IC50 (MDA-MB-231 [2]) [µM] | IC50 (MCF7) [µM] | IC50 (MDA-MB-231 [3]) [µM] | Activity (Caenorhabditis elegans [4]) | Activity (Caenorhabditis elegans [5]) | inhibition (MDA-MB-231 [6]) |
| --- | --- | --- | --- | --- | --- | --- | --- |
| C=C(C)[C@H]1O[C@H]2CC[C@@]3(C)[C@@](O)(CC[C@H]4[C@@H]5OC(C)(C)[C@H]6C[C@@H]7C(=C)Cc8c(Br)cc9[nH]c(c5c9c8[C@@]76O)[C@@]43C)[C@]23O[C@@H]3[C@H]1O | Non-toxic | 9.6 | 16.7 | 8.5 | Toxic | Non-toxic | – |
| C=C1Cc2c(Cl)cc3[nH]c4c5c3c2[C@H]2[C@@H]1C[C@@H]2C(C)(C)O[C@H]5[C@@H]1CC[C@@]2(O)[C@@]35O[C@@H]3[C@@H](O)[C@@H](C(=C)C)O[C@H]5CC[C@]2(C)[C@@]41C [PENITREM F] | Non-toxic | 35 | 15 | 13.8 | – | Non-toxic | inactive |
| CC(C)(O)[C@@H]1CC[C@]2(C)[C@H](CC[C@@]3(C)[C@H]2CC[C@H]2Cc4c([nH]c5ccccc45)[C@@]23C)O1 [PASPALINE] | Non-toxic | 7.6 | 12.8 | 12.4 | – | Non-toxic | – |
| C=C1Cc2c(Br)cc3[nH]c4c5c3c2[C@H]2[C@@H]1C[C@@H]2C(C)(C)O[C@H]5[C@@H]1CC[C@@]2(O)[C@@]35O[C@@H]3[C@@H](O)[C@@H](C(=C)C)O[C@H]5CC[C@]2(C)[C@]41C | Non-toxic | 30.3 | 19.3 | 18.8 | – | Non-toxic | – |
